The values that follow come from patent US6011000A, “Compositions for the treatment of blood disorders” (priority 1995, dated 2000).

One data set relates to K562. The experiment in a line: Growth of human erythroid cell line K562. It counts as cell-based. Particulars: for growth of K562: over 3 days. The protocol: Such activities might limit their utility for treatment of anemias such as occur in thalassemia, but alternatively would be useful for anticancer effects. […]
(§1) Cell viability analyses were performed using fluorescent staining to detect living cells. Cells were in log phase of growth in 6-well dishes when used in proliferation assays. For enumeration of living cells, wells were washed once with medium to remove nonadherent or dead cells. Remaining live cells were labeled with Calcein-AM for 20 minutes at 37° C. and washed once. Fluorescence intensity of adherent live cells was read on a CytoFluor 2300 Fluorescence Plate Scanner (Millipore; Bedford, Mass.) at excitation and emission wavelengths of 485 and 530 nm, respectively. The fluorescence intensity of a well was proportional to the number of living cells in the well. Background fluorescence was measured separately for each plate and subtracted from all readings. Each experiment was performed in triplicate or quadruplicate. The standard deviation (SD) of repetitive readings was less than 30% of the mean.
At higher concentrations, still easily achievable in vivo, arginine butyrate (0.5 mM) and dihydrocinnamic acid (greater than 0.5 mM) inhibited growth of this tumor cell line by approximately 50%. Therefore, these compounds are also useful as anti-tumor agents.

The next data set deals with human erythroid cells. The experiment in a line: DNA fragmentation by flow cytometry (degradation of DNA). In kind it is cell-based. Particulars: for Degraded DNA: 4 days, control 26%, 22%; for proportion of degraded DNA: 1.0 mM to 2.0 mM, untreated 26%; for DNA fragmentation / cell viability / DNA integrity: DNA fragmentation assays. The protocol:
Such activities might limit their utility for treatment of anemias such as occur in thalassemia, but alternatively would be useful for anticancer effects. To determine cell viability, human erythroid cells were cultured in the presence and absence of these compounds for 4 days and the amount of DNA fragmentation which occurred was measured.
Flow cytometric determination of DNA profiles and DNA fragmentation were determined. Cytometric analysis was performed with a FACScan (Becton Dickenson Instruments; Columbia, Md.). The data analysis and display were performed using the Cell-Fit software program. Approximately 0.5×10^6 cells were washed twice with PBS and resuspended in 1 ml of 1% sodium citrate, 0.1% Triton X-100 and 50 μg of propidium iodide/ml. Resulting permeabilized cells were kept in the dark at 4° C. overnight before DNA profile or DNA fragmentation analysis (Table 4).
Background: A flow cytometer gives signals particle by particle.

Data set [1] has as its system system A transport (K562 cells and nucleated erythroblasts from fetal liver). Briefly: Effects on system A amino acid transport (3H-MAIB uptake). It counts as cell-based, human. The protocol: Inhibition of nutrient uptake is undesirable for treatment of anemias. Methyl aminoisobutyric acid (MAIB) labeled with tritium (^3 H) is normally taken up by system A amino acid transport. Cold (unlabeled) compounds were added to cultures containing ^3 H-MAIB and incubated for 1 hour. Cells were harvested and the amount of ^3 H taken up by cells was quantitated by scintillation counting.

A further data set relates to K562 cells. Briefly: Dose response of cell growth, trypan blue exclusion (FIG. 3). It counts as cell-based, human. As to conditions: day 4. How it is done: FIG. 3 Cell viability as determined by the comparative numbers of total and viable K562 cells in the presence of increasing concentrations of (A) phenoxyacetic acid, (B) dihydrocinnamic acid, (C) butyric acid ethyl ester, (D) arginine butyrate, and (E) isobutyramide.
Dose response curves at dosages of up to 2.0 mM were also determined for phenoxyacetic acid (PAA; FIG. 3A), dihydrocinnamic acid (DHC; FIG. 3B), butyric acid ethyl ester (BAEE; FIG. 3C), arginine butyrate (AB; FIG. 3D) and isobutyramide (IBT; FIG. 3E). Cells were counted on day 4 of treatment and viable cells identified by trypan blue exclusion.

The subject of data set [2] is fetal globin mRNA (human erythroleukemia cells). Briefly: Fetal globin mRNA in erythroleukemia cells (primer extension). In kind it is cell-based. Particulars: for Gamma/Alpha: untreated 0.46; for activation at 1000 µM: Homo sapiens, 96 h, read-out: Gamma Globin mRNA (increase). The protocol:
Compounds were tested for increased expression of the human globin genes in human erythroid cells. In addition, as the cell line being tested is a tumor cell line, the assay determines if differentiation, a growth inhibitory effect on cancer cells, is induced by the compounds tested. Human erythroleukemia cells were cultured in RPMI media with 10% fetal calf serum alone or with treatment with various compounds for 4 days. Globin MRNA was quantitated by primer extension analysis. Fetal globin mRNA was compared to the amount of fetal globin mRNA produced in untreated cells during the same culture period. The quantitation was expressed as a percent of alpha globin MRNA which was constant. Results are expressed proportional to α-globin mRNA (Table 3).

Data set [3] deals with erythroid cells (peripheral blood). Briefly: Erythroid cell viability by fluorescent staining (Calcein-AM), FIG. 2. It counts as cell-based, human. Particulars: vs untreated controls. How it is done: FIG. 2 Peripheral blood cell viability after incubation with arginine butyrate, dihydrocinnamic acid, phenoxyacetic acid and butyric acid ethyl ester.
as §1, with “Compositions were tested for the ability to directly stimulate erythroid cell growth. Cell growth stimulation is a useful property for an agent to be used to treat anemias and distinguishes such agents from the cytotoxic drugs currently being tested for treatment of hemoglobinopathies. Cell viability” for “Cell viability”, “labeled with 2 μM 2',7'-bis-(carboxyethyl)-5-(and 6)-carboxy-fluorescein acetoxy-methyl ester (Calcein-AM) (Molecular Probes; Eugene, Oreg.) for 20” for “labeled with Calcein-AM for 20”, “intensity of live cells” for “intensity of adherent live cells”, “the mean. Results are depicted in FIG. 2.” for “the mean.”

The structures appear in SMILES notation. Where two headings read alike, the source gives them in different places.

For orientation: inhibition means the percentage by which the read-out fell short of the control. A higher inhibition goes with a strong effect. Regarding `CCCC(=O)O` [AB, arginine butyrate], the “growth of K562” value with K562 (0.2 mM) is reported as “either did not inhibit, or slightly enhanced growth”. In the data set on K562 (Homo sapiens, K562, 0.5 mM), this molecule yielded an inhibition at 500 µM of around 50%. The “Degraded DNA” value in the data set on human erythroid cells (0.5 mM) came to 32%; in the data set with human erythroid cells (1.0 mM), 34%; with human erythroid cells (2.0 mM), 44%. The “proportion of degraded DNA” value in the data set on human erythroid cells turned out to be 44%. In the data set with human erythroid cells, the “DNA fragmentation / cell viability / DNA integrity” value is listed as “decrease cell viability”. The “system A (neutral) amino acid transport” value in data set [1] is “inhibited the neutral amino acid transport mechanism”. For the same molecule, the cell growth result in the data set with K562 cells (concentrations above 0.2 mM) was “suppressed cell growth”. Also, the “induction of fetal globin mRNA” value in data set [2] is given as “significantly increased the induction of fetal globin MRNA”. Also, the Gamma/Alpha in data set [2] (1.0 mM, 4 days) worked out at 0.66. For the same molecule, the activation at 1000 µM in data set [2] (1.0 mM, 4 days) came to 20%. The “erythroid cell growth and proliferation” value in data set [3] (0.2 mM) and in data set [3] (0.5 mM) was “inhibited proliferation” in each case.

For the molecule `O=C(O)COc1ccccc1` [PAA, Phenoxyacetic acid], in the data set on K562 (0.5 mM), the “growth of K562” value is reported as “either did not inhibit, or slightly enhanced growth”. In the data set on human erythroid cells, the “proportion of degraded DNA” value is on record as 20.6% and the “DNA fragmentation / cell viability / DNA integrity” value is reported as “reduce DNA fragmentation”. Besides, the “Degraded DNA” value with human erythroid cells (2.0 mM) stood at 20.6%. The “system A (neutral) amino acid transport” value in data set [1] (1 hour, 3H-MAIB (FIG. 12), listed as phenoxy acetic acid) was “caused no significant inhibition and actually increased uptake of nutrients into cells”. Also, the “system A (neutral) amino acid transport” value in data set [1] (1 hour, 3H-MAIB (FIG. 12), listed as phenoxyacetic acid) is listed as “do not significantly alter system A transport of amino acids”. Also, the proliferation entry in the data set on K562 cells (up to 2.0 mM) was “did not significantly inhibit proliferation”. Further, in data set [2], the “induction of fetal globin mRNA” value is “significantly increased the induction of fetal globin MRNA” and the activation at 1000 µM turned out to be 24%. Also, the Gamma/Alpha in data set [2] (1.0 mM, 4 days) turned out to be 0.70. In data set [3] (0.5 mM), the “erythroid cell growth and proliferation” value is “either had no effect or stimulated erythroid cell growth and proliferation”.
